Among the data in patent US11530244B2, “Cyclic polypeptides for PCSK9 inhibition” (priority 2018, dated 2022) are IC50 values, retold here.

The structures appear in SMILES notation. Starred links: 1 amine or outer side, 2 acyl side, 3 side chain; linkers in the order of their positions; H or OH if unused. Positions of bridges follow the written chain, without caps; N, C: chain ends. Non-standard residues stand in square brackets, D forms with d. Residues, ends and D or L forms follow the SMILES beside them. ξ: configuration not given here. Phe(4-COOH) = N[C@@H](Cc1ccc(C(=O)O)cc1)C(=O)O; Pyridine(2,6-diCH2) = c1cc(C[*:1])nc(C[*:2])c1; Trp(5-F) = N[C@@H](Cc1c[nH]c2ccc(F)cc12)C(=O)O; X10 = O=C(CCSCc1ccc2ccc(CSCCN[*:1])cc2c1)[*:2]; dTrp(5-F) = N[C@H](Cc1c[nH]c2ccc(F)cc12)C(=O)O; X4 = O=C(CCSCc1cccc(CSCCN[*:1])c1)[*:2]; TBMB = c1c(C[*:1])cc(C[*:3])cc1C[*:2]; mXylylene = c1cc(C[*:1])cc(C[*:2])c1; AEF = NCCOc1ccc(C[C@H](N)C(=O)O)cc1; NMeY = CN[C@@H](Cc1ccc(O)cc1)C(=O)O; X41 = O=C(Cc1ccc(N[*:1])cc1)[*:2]; X7 = O=C(Cc1ccc(CN[*:1])cc1)[*:2]; NMeL = CN[C@@H](CC(C)C)C(=O)O; d(αMeP) = C[C@]1(C(=O)O)CCCN1; Tle = CC(C)(C)[C@H](N)C(=O)O; αMeP = C[C@@]1(C(=O)O)CCCN1; ξD = NC(CC(=O)O)C(=O)O; Ac3c = NC1(C(=O)O)CC1; Mpa = O=C(O)CCS

Test [1] deals with human PCSK9 / human LDLR EGFa domain interaction (Homo sapiens (Human), UniProt Q8NBP7). The test can be described thus: TR-FRET assay of inhibition of the PCSK9-LDLR protein-protein interaction. The format is binding. Particulars: TR-FRET, 20 nM human PCSK9, 20 nM human LDLR EGFa domain, 2 hours room temperature; read-out: IC50. The method in brief:
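Biotinylated PCSK9 (20 nM) and His-tagged LDLR EGFa domain (20 nM) were incubated 2 h at room temperature with 5 nM Ulight-streptavidin and 5 nM Eu-anti-His in HEPES/NaCl/CaCl2 buffer with 0.01% BSA and 0.01% P20. TR-FRET was read; half-maximal inhibitory concentrations came from 4-parameter dose-response fits.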
In general terms: Time-resolved FRET reads energy transfer from a long-lived donor to a nearby acceptor.

In a further test the target is PCSK9 (Homo sapiens (Human), UniProt Q8NBP7). The test can be described thus: PCSK9 Alexa FRET Standard assay (displacement of AlexaFluor647 tagged cyclic peptide Reagent A). The format is binding. Particulars: PCSK9 Alexa FRET Standard assay, 0.5 nM PCSK9, 20 nM AF cyclic peptide Reagent A; read-out: IC50. The method in brief:
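TR-FRET displacement: 0.5 nM biotinylated PCSK9 with 1.25 nM Strep-Eu and 20 nM AlexaFluor-tagged cyclic peptide (final) in 50 mM HEPES pH 7.4, 0.15 M NaCl, 5 mM CaCl2, 0.01% BSA, 0.01% P20, ≥2 h at room temperature. IC50 from sigmoidal fit, converted to Ki via peptide KD; falling Eu counts flagged false positives.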

Chain of PCSK9 (Q8NBP7 153-692): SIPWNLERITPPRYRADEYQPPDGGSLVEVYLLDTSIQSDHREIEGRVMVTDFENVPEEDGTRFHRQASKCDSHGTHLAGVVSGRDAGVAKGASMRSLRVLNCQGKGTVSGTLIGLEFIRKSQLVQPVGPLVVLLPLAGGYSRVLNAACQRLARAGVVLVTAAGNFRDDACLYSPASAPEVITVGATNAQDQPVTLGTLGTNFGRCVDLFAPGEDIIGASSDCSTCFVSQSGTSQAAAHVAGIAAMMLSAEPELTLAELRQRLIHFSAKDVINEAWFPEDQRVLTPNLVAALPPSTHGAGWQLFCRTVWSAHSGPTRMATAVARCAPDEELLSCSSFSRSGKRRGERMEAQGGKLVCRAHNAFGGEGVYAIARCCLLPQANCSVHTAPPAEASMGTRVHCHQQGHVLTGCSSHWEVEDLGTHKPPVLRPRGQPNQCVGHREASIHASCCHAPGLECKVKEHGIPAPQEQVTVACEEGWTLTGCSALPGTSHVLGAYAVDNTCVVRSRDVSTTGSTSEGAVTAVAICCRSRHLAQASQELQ
Chain of human PCSK9 / human LDLR EGFa domain interaction (Q8NBP7 153-692): as above
Chain of human PCSK9 / human LDLR EGFa domain interaction (Q8NBP7 31-152 partner): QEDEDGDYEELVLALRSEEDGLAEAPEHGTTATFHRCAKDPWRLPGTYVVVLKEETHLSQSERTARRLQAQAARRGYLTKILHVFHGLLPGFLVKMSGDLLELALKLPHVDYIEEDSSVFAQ

Broadly, the IC50 is the concentration needed to halve the response being measured. Consider `COc1ccc(C[C@@H]2NC(=O)[C@H]([C@@H](C)O)NC(=O)[C@@H]3CCCN3C(=O)[C@H](Cc3c[nH]c4ccc(F)cc34)NC(=O)[C@H](Cc3c[nH]c4ccc(F)cc34)NC(=O)[C@@H](C)NC(=O)[C@H](CCCCN)NC(=O)CCSCc3cccc(n3)CSC[C@@H](C(N)=O)NC(=O)[C@]3(C)CCCN3C2=O)cc1` [Compound 065] ([Mpa]K[dA][Trp(5-F)][Trp(5-F)]PTY(Me)[αMeP]C-NH2; linker 1-10 via Pyridine(2,6-diCH2)), for which the IC50 in test [1] fell in the range of 0.1 to 100 nM; at PCSK9, 100 to 1000 nM.

Regarding `COc1ccc(C[C@@H]2NC(=O)[C@H](Cc3cnc[nH]3)NC(=O)[C@H](CC(=O)O)NC(=O)[C@H](Cc3c[nH]c4ccc(F)cc34)NC(=O)[C@H](Cc3c[nH]c4ccc(F)cc34)NC(=O)[C@@H](C)NC(=O)[C@H](CCCCN)NC(=O)CCSCc3ccc4ccc(cc4c3)CSCCNC(=O)[C@]3(C)CCCN3C2=O)cc1` [Compound 405] (cyclo(DHY(Me)[αMeP][X10]K[dA][Trp(5-F)][Trp(5-F)])), the IC50 in test [1] fell in the range of 0.1 to 100 nM; at PCSK9, 100 to 1000 nM.

In the case of `COc1ccc(C[C@@H]2NC(=O)[C@H](Cc3cnc[nH]3)NC(=O)[C@H](CC(=O)O)NC(=O)[C@H](Cc3c[nH]c4ccc(F)cc34)NC(=O)[C@H](Cc3c[nH]c4ccc(F)cc34)NC(=O)[C@@H](C)NC(=O)Cc3ccc(cc3)CNC(=O)c3ccc(cc3)C[C@@H](C(N)=O)NC(=O)[C@]3(C)CCCN3C2=O)cc1` [Compound 391] ([X7][dA][Trp(5-F)][Trp(5-F)]DHY(Me)[αMeP][Phe(4-COOH)]-NH2; lactam N-9), the results for the IC50 (in test [1]; on PCSK9) were 0.1 to 100 nM and 100 to 1000 nM, respectively.

Take `C[C@@]12CCCN1C(=O)[C@H](Cc1ccc(O)cc1)NC(=O)[C@H](Cc1c[nH]cn1)NC(=O)[C@H](CC(=O)O)NC(=O)[C@H](Cc1c[nH]c3ccc(F)cc13)NC(=O)[C@H](Cc1c[nH]c3ccc(F)cc13)NC(=O)CNC(=O)C1(CC1)NC(=O)CCSCc1cccc(c1)CSC[C@@H](C(N)=O)NC2=O` [Compound 281] ([Mpa][Ac3c]G[Trp(5-F)][Trp(5-F)]DHY[αMeP]C-NH2; linker 1-10 via mXylylene): the IC50 lay within 0.1 to 100 nM in test [1] and 100 to 1000 nM at PCSK9.

For `COc1ccc(C[C@@H]2NC(=O)CCSCc3cccc(c3)CSC[C@@H](C(N)=O)NC(=O)[C@]3(C)CCCN3C(=O)[C@H](Cc3ccc(OC)cc3)NC(=O)[C@H]([C@@H](C)OC)NC(=O)[C@H](CC(C)C)N(C)C(=O)[C@H](Cc3ccc(OC)cc3)NC(=O)[C@H](Cc3ccc(OC)cc3)N(C)C(=O)[C@@H](CC(C)C)NC2=O)cc1` [Compound 036] ([Mpa]Y(Me)[dL][NMeY](Me)Y(Me)[NMeL]T(Me)Y(Me)[αMeP]C-NH2; linker 1-10 via mXylylene), the IC50 in test [1] lay within 0.1 to 100 nM; on PCSK9, 0.11 to 100 nM.

Regarding `COc1ccc(C[C@H]2NC(=O)[C@@H](Cc3c[nH]cn3)NC(=O)[C@@H](CC(=O)O)NC(=O)[C@@H](Cc3c[nH]c4ccc(F)cc34)NC(=O)[C@@H](Cc3c[nH]c4ccc(F)cc34)NC(=O)[C@H](C(C)(C)C)NC(=O)[C@@H](CCCCN)NC(=O)CCSCc3cccc(c3)CSCCNC(=O)[C@@]3(C)CCCN3C2=O)cc1` [Compound 362] (cyclo([Tle][dTrp(5-F)][dTrp(5-F)][dD][dH][dY](Me)[d(αMeP)][X4][dK])), the IC50 in test [1] was 0.1 to 100 nM; at PCSK9, 0.11 to 100 nM.

Turning to `COc1ccc(C[C@@H]2NC(=O)[C@H](Cc3cnc[nH]3)NC(=O)[C@H](CC(=O)O)NC(=O)[C@H](Cc3c[nH]c4ccc(F)cc34)NC(=O)[C@H](Cc3c[nH]c4ccc(F)cc34)NC(=O)[C@@H](C)NC(=O)Cc3ccc(cc3)NC(=O)CC(C(=O)O)NC(=O)[C@]3(C)CCCN3C2=O)cc1` (stereo partly drawn) [Compound 402] ([X41][dA][Trp(5-F)][Trp(5-F)]DHY(Me)[αMeP][ξD]-OH; lactam N-9), the IC50 (in test [1]; on PCSK9) was 1000 to 12100 nM in each case.

As to `NCCCC[C@@H]1NC(=O)CCSCc2cccc(c2)CSC[C@@H](C(N)=O)NC(=O)[C@@H]2CCCN2C(=O)[C@H](Cc2ccc(OCCN)cc2)NC(=O)[C@H](Cc2c[nH]cn2)NC(=O)[C@H](CC(=O)O)NC(=O)[C@H](Cc2c[nH]c3ccc(F)cc23)NC(=O)[C@H](Cc2c[nH]c3ccc(F)cc23)NC(=O)CNC1=O` [Compound 265] ([Mpa]KG[Trp(5-F)][Trp(5-F)]DH[AEF]PC-NH2; linker 1-10 via mXylylene), the IC50 (in test [1]; at PCSK9) was 100 to 1000 nM each time.

`COc1ccc(C[C@@H]2NC(=O)[C@H]([C@@H](C)O)NC(=O)[C@@H]3CCCN3C(=O)[C@H](Cc3c[nH]c4ccc(F)cc34)NC(=O)[C@H](Cc3c[nH]c4ccc(F)cc34)NC(=O)[C@@H](C)NC(=O)[C@H](CCCCN)NC(=O)CCSCc3cc(C)cc(c3)CSC[C@@H](C(N)=O)NC(=O)[C@]3(C)CCCN3C2=O)cc1` [Compound 062] ([Mpa]K[dA][Trp(5-F)][Trp(5-F)]PTY(Me)[αMeP]C-NH2; linker 1-10 via TBMB): the IC50 (in test [1]; on PCSK9) was 1000 to 12100 nM each time.
